# Test results published in paper PMC11491004, “CHF6523 data suggest that the phosphoinositide 3-kinase delta isoform is not a suitable target for the management of COPD” (Respiratory Research, 2024).
# What was measured:
# sputum cell counts = experiment: Cell count in induced sputum; assay type: in vivo, human; conditions: p < 0.05
# Description: All assessment timings were based on the morning dose. Pre-dose on Days 1 and 28 of each treatment period, blood samples were taken for pharmacokinetic analyses, followed by forced oscillation (including slow vital capacity manoeuvres for inspiratory capacity [IC] and vital capacity [VC]), spirometry (forced expiratory volume in 1 s [FEV1] and forced vital capacity [FVC]), and the COPD Assessment Test (CAT). Blood samples were also taken up to 12 h post-dose on Days 1 and 28 for pharmacokinetic analyses, with blood samples for biomarker assessment pre-dose on Day 1 and 2 h post-dose on Day 28, and spirometry pre-dose on Days 20 and 24. […]
# Fold-change from baseline in cell counts, target biomarkers in sputum and blood, and PIP3 were log-transformed and analysed using an analysis of covariance (ANCOVA) model, with treatment, patient, and period as fixed effects, and baseline value as covariate. Changes from baseline in spirometry, forced oscillation and CAT endpoints were analysed using a similar ANCOVA model, but without log transformation. Rescue medication data were analysed using an analysis of variance model, including treatment, period and patient as fixed effects. […]
# To induce sputum, patients with FEV1 ≥0.8 L inhaled nebulised hypertonic saline at increasing concentrations (3%, then 4% and finally 5%), with FEV1 monitored for safety after each concentration. […]
# [1] = Spirometry (pre-dose FEV1 and FVC); assay type: in vivo, human
# Description: (§1) All assessment timings were based on the morning dose. Pre-dose on Days 1 and 28 of each treatment period, blood samples were taken for pharmacokinetic analyses, followed by forced oscillation (including slow vital capacity manoeuvres for inspiratory capacity [IC] and vital capacity [VC]), spirometry (forced expiratory volume in 1 s [FEV1] and forced vital capacity [FVC]), and the COPD Assessment Test (CAT). Blood samples were also taken up to 12 h post-dose on Days 1 and 28 for pharmacokinetic analyses, with blood samples for biomarker assessment pre-dose on Day 1 and 2 h post-dose on Day 28, and spirometry pre-dose on Days 20 and 24. Sputum was induced prior to each treatment period for baseline determination of biomarkers, and post-dose on Day 20 for collection of phosphatidylinositol (3,4,5)-trisphosphate (PIP3), and on Days 24 and 28 for collection of biomarkers.
# (§2) Fold-change from baseline in cell counts, target biomarkers in sputum and blood, and PIP3 were log-transformed and analysed using an analysis of covariance (ANCOVA) model, with treatment, patient, and period as fixed effects, and baseline value as covariate. Changes from baseline in spirometry, forced oscillation and CAT endpoints were analysed using a similar ANCOVA model, but without log transformation. Rescue medication data were analysed using an analysis of variance model, including treatment, period and patient as fixed effects. Other data, including the proportion of days on which patients coughed and the cough VAS results, are presented descriptively only. Further details, including the transcriptomics, mass-spectrometry and Olink proteomics, bioinformatics and multi-omic data integration are in the supplement.
# [2] = test system: genes in blood and sputum; experiment: Transcriptomics (RNA-seq) in blood and sputum; assay type: in vivo, human
# Description: PAXgene RNA blood samples and induced sputum samples collected in Trizol were analysed at Almac Diagnostic Services (Craigavon, Northern Ireland, UK). RNA extraction and quality assessment of the PAXGene blood and sputum samples were performed, prior to downstream next generation sequencing (NGS). To minimise any technical variability, samples were randomised into processing batches for RNA extraction and NGS library preparation.
# After extraction, all RNA underwent quality assessment. PAXGene RNA samples were assessed using a combination of Nanodrop (quantity) and the Agilent Tapestation (integrity), and Sputum RNA samples were assessed using the Qubit RNA assay (quantity) and Agilent Tapestation (integrity). Nanodrop was used for quantity assessment of RNA extracted from sputum in order to preserve a sample for downstream library preparation input.
# Upon successful completion of the quality assessment, samples underwent library preparation using Kapa RNA Hyperprep with Riboerase kit. PAXGene Blood RNA samples were also treated with globin depletion oligos. Following library preparation, all generated libraries underwent quality assessment (quantification via Quant-iT dsDNA high-sensitivity assay, and fragment size assessment via the Agilent Tapestation) before being loaded on to a NovaSeq 6000 and sequenced with a total read length of 2x76bp, to a read budget of 50 million paired end reads (total 100 million reads) per sample. Processing control samples were included in the processing batch. Upon completion of sequencing, the quality of sequencing was assessed for the following parameters: clusters passing filter, Q30 scores, error rate, cluster density and read distribution.
# Raw sequence data in FASTQ format were subject to a number of quality control assessment steps hosted on the DNAnexus cloud platform. Basic sequencing metrics such as GC content were calculated from unaligned reads using FastQC. Potential ribosomal RNA (rRNA) contamination was assessed using the Burrows-Wheeler Aligner (BWA) and samtools flagstat to determine the number of reads aligning to a ribosomal RNA (rRNA) sequence database. Read alignment to the human reference genome GRCh38 was then performed using StarAlign, with outputs used to calculate post-alignment quality control (QC) metrics such as duplication rate, calculated using Picard MarkDuplicates and a housekeeping coverage metric using a custom script. […] Both pre- and post alignment QC metrics were then reviewed to check for potential problems originating from the sequencing run or starting library material.
# The aim was to identify genes that were differentially expressed in response to treatment with CHF6523 from blood and sputum samples.
# The ANCOVA model was specified as change from pre-dose to post-dose expression as dependent variable. The independent variables were treatment (reference: placebo), patient, period, and pre-dose expression.
# Functional enrichment was performed on those differentially expressed gene lists that had at least 20 genes with FDR<0.05 using ToppFun enrichment on the ToppGene website (https://toppgene.cchmc.org/enrichment.jsp, accessed 05 May 2023 [4]). The background of the enrichment used were those genes that were available in the original datamatrix.
# [3] = Cough episodes: daily diary and visual analogue scale; assay type: in vivo, human; conditions: for Mean cough VAS score (95% CI): VAS 100 mm, 0 no cough, 100 worst cough ever
# Description: as §2
# [4] = test system: eosinophilic/type-2 inflammation; conditions: series of preclinical studies in rat or mouse models of airway inflammation; cited from earlier work
# PI3Kδ = PI3Kδ (Homo sapiens, UniProt O00329); experiment: Target engagement: PIP3 in induced sputum; assay type: in vivo; parameters: from tissue; host or cells: induced sputum of COPD patients (in vivo dosing by inhalation)
# Sequence of PI3Kδ (O00329 whole entry): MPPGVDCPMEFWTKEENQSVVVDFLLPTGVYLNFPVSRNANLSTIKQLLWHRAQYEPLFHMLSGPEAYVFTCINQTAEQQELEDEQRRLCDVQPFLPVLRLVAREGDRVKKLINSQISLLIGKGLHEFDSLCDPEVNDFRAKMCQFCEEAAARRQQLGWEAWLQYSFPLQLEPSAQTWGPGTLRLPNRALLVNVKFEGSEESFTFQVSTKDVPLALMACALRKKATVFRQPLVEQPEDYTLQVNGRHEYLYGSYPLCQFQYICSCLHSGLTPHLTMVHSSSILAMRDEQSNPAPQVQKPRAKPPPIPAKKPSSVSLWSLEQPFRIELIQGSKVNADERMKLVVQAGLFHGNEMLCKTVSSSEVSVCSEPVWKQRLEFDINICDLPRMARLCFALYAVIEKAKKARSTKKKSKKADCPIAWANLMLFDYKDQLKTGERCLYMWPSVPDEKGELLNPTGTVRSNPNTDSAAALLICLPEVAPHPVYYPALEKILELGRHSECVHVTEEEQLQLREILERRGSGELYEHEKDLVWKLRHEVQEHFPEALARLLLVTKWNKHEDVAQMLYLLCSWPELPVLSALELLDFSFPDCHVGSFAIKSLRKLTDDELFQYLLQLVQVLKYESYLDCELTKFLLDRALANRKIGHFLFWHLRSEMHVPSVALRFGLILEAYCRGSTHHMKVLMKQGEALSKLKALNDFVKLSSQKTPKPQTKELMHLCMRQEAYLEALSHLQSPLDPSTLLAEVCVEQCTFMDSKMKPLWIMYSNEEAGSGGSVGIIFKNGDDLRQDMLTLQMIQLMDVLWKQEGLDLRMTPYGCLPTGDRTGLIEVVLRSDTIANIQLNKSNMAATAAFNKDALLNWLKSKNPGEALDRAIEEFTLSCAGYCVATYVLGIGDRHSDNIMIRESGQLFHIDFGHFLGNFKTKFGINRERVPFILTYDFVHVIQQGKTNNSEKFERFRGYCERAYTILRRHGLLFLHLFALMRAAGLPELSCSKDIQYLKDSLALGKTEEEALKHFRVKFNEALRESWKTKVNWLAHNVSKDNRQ
# Sequence of PI3Kδ (P27986 whole entry partner): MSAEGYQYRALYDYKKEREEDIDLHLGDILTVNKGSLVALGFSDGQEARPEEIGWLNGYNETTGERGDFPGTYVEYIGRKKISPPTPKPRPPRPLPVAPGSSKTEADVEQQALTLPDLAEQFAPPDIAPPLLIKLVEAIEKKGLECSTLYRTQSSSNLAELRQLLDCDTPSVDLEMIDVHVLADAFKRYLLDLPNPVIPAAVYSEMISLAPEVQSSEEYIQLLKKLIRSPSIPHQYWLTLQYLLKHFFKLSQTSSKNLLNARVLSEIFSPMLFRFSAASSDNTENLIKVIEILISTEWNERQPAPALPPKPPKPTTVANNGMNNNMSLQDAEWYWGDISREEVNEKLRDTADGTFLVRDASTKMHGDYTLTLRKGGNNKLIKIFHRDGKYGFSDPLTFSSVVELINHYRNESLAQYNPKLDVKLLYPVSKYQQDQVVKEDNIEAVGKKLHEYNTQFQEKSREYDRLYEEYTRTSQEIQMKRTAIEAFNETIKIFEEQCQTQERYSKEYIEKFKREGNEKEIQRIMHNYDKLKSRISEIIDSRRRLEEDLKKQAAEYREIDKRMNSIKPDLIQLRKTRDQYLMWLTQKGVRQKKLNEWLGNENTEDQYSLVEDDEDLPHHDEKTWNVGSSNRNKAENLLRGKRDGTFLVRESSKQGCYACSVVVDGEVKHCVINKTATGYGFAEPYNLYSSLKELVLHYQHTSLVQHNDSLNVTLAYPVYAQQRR
# Description: as §1, §2
compound,measurement,setting,value
C[C@@H](c1oc(=O)c2ccccc2c1-c1cccc(CN2CCN(C)CC2)c1)n1nc(-c2cncc(O)c2)c2c(N)ncnc21 [CHF6523],CHF6523–placebo differences in sputum cell counts,sputum cell counts,no statistically significant
same,Change from baseline in pre-dose FEV1: CHF6523–placebo difference (95% CI),[1]; Day 20,"−79 (−149, −9) mL"
same,Change from baseline in pre-dose FVC: CHF6523–placebo difference (95% CI),[1]; Day 20,"−38 (−191, 116) mL"
same,Change from baseline in pre-dose FEV1: CHF6523–placebo difference (95% CI),[1]; Day 24,"−79 (−141, −17) mL"
same,Change from baseline in pre-dose FVC: CHF6523–placebo difference (95% CI),[1]; Day 24,"−25 (−170, 120) mL"
same,Change from baseline in pre-dose FEV1: CHF6523–placebo difference (95% CI),[1]; Day 28,"−146 (−242, −50) mL"
same,Differentially expressed genes in blood,"[2]; blood, RNA-seq, 24 patients",No differentially expressed genes
same,|log2FC| of the six genes with |log2FC| >1,[2]; sputum,1.019–1.067
same,TLR1 log2FC,"[2]; sputum, FDR = 0.0155",0.71
same,TLR10 log2FC,"[2]; sputum, FDR = 0.0418",0.48
same,TLR6 log2FC,"[2]; sputum, FDR = 0.0451",0.52
same,Genes significantly differentially expressed in sputum,"[2]; sputum, RNA-seq, FDR < 0.05, more than 38,000 genes evaluated",126 genes
same,Differentially expressed genes in sputum that were upregulated,"[2]; sputum, of 126",119 genes
same,"Days on which patients coughed, adjusted mean","[3]; daily diary, 2 mg twice daily inhaled, 95% CI 63.5%, 84.5%",74.0%
same,Mean cough VAS score (95% CI),[3]; evening,"31.3 (22.1, 40.4) mm"
same,Cough events not resolving within 1 h after inhalation,[3]; in vivo,3.2%
same,Mean cough VAS score (95% CI),[3]; morning,"30.3 (95% CI 21.3, 39.3) mm"
same,Inhibition of eosinophilic/type-2 inflammation,[4],potent inhibition of eosinophilic/type-2 inflammation comparable to that of nemiralisib
same,Sputum PIP3 adjusted geometric mean fold change from baseline [95% CI],PI3Kδ; Day 20,"0.703 [95% CI 0.606, 0.814]"
same,Decrease from baseline in sputum PIP3 levels,"PI3Kδ; Day 20, 2 mg twice daily inhaled",29.7%
same,Sputum PIP3 adjusted ratio CHF6523 vs placebo [95% CI],"PI3Kδ; Day 20, p = 0.001","0.705 [0.580, 0.856]"
same,Sputum PIP3 difference between groups (reduction vs. placebo),"PI3Kδ; Day 20, p = 0.001",29.5%
